Measured values published in the NIST ThermoML archive (doi:10.1021/je9001575).

Experiments:
[1] = molar heat capacity at saturation pressure; conditions: Liquid, Vacuum adiabatic calorimetry
[2] = Crystal; Adiabatic calorimetry
[3] = Molar enthalpy of transition or fusion; conditions: Crystal; Adiabatic calorimetry

CC(C)C [2-methylpropane]
[1]
Conditions	molar heat capacity [J/K/mol]
116.8 K	99.97
119.57 K	100.39
122.23 K	100.86
124.96 K	101.19
127.55 K	101.83
130.24 K	102.1
132.77 K	102.54
135.42 K	103.17
137.9 K	103.68
140.51 K	103.94
142.95 K	104.41
145.52 K	104.91
147.92 K	105.3
150.47 K	105.75
152.83 K	106.16
155.34 K	106.5
157.66 K	107.02
160.15 K	107.18
162.44 K	107.78
164.89 K	108.27
167.16 K	108.62
169.58 K	109.08
171.82 K	109.17
174.21 K	110.08
176.43 K	110.08
178.8 K	110.97
180.99 K	111.25
183.33 K	112.12
185.5 K	112
187.82 K	112.78
189.97 K	112.81
192.26 K	113.22
194.39 K	113.72
196.66 K	114.21
198.77 K	114.75
201.01 K	115.05
203.11 K	115.61
205.34 K	115.9
207.41 K	116.35
209.61 K	116.79
211.67 K	117.4
213.86 K	117.52
215.9 K	118.12
218.07 K	118.51
220.09 K	118.79
222.24 K	119.63
224.25 K	119.86
226.39 K	120.61
228.38 K	121.07
230.5 K	121.62
232.48 K	121.93
234.59 K	122.3
236.55 K	122.62
238.65 K	123.75
240.59 K	123.7
242.68 K	124.31
244.61 K	124.72
246.68 K	125.15
248.6 K	125.88
250.66 K	126.37
252.57 K	126.78
254.62 K	127.78
256.52 K	127.81
258.55 K	128.92
260.45 K	128.69
262.47 K	129.62
264.35 K	129.86
266.37 K	130.48
268.24 K	131.47
270.24 K	131.7
272.11 K	132.45
274.1 K	133.44
275.96 K	133.56
277.94 K	134.24
279.8 K	134.7
281.76 K	135.37
283.62 K	135.69
285.57 K	136.15
287.43 K	137.7
289.37 K	137.5
291.23 K	138.84
293.15 K	139.14
295.01 K	139.36
296.93 K	140.12
298.78 K	140.84
300.68 K	141.15
302.54 K	142.6
306.3 K	143.77
308.17 K	143.87
310.04 K	144.87
311.91 K	146
313.77 K	146.62
315.63 K	147.42

Conditions	Molar enthalpy of transition or fusion [kcal/mol]	Triple point temperature [K]
[2]	–	113.71
[3]	1.074	–
